Measured values from patent US20050288300A1, “Methods of use fluoroquinolone compounds against maxillary sinus pathogenic bacteria” (LG Life Sciences Limited., priority 1999, published 2005).
Values after ≈ are worked out from the molar mass of the structure shown.

How the values were obtained:
Assay type in all cases: cell-based
[1] = MIC by agar dilution, maxillary sinus isolates; details: Streptococcus spp.: 5 Enterobacteriaceae, 6 non-fermentative Gram negative bacilli, 2 Neisseria meningitidis, 2 beta-haemolytic Streptococcus
Description: (§1) Test strains were obtained from recent maxillary sinus aspiration. Identification of organisms was by standard methods (see, for example, Murray, P. R., et al. Manual of Clinical Microbiology. 6th ed. American Society of Microbiology 1995: 282-620).
(§2) Antimicrobial activity was tested against 250 selected isolates (Table 1).
(§3) The agar dilution method using replicate plating of the organisms onto a series of agar plates of increasing concentrations was used (see, for example, National Committee for Clinical Laboratory Standards. Methods for antimicrobial susceptibility tests for bacteria that growth aerobically. Approved standards M 7-A4. National Committee for Laboratory Standards, Villanova, Pa., 1997).
(§4) MICs were determined by using doubling dilutions of between 0.02-256 mg/L with an inoculum of 10^4 CFU in area of 5-8 mm.
(§5) Haemophilus Test Medium was used for Haemophilus spp. and Wilkins-Chalgren agar was used for anaerobes.

[2] = test system: Staphylococcus aureus; assay: MIC by agar dilution, maxillary sinus isolates; details: S. aureus (n = 31)
Description: as §1, §2, §3, §4, §5

[3] = test system: Haemophilus influenzae; assay: MIC by agar dilution, maxillary sinus isolates; details: H. influenzae (n = 45); for MIC / MIC50 / MIC90: Haemophilus influenzae; for MIC: 24 h
Description: as §1, §2, §3, §4, §5

[4] = test system: Streptococcus pneumoniae; assay: MIC by agar dilution, maxillary sinus isolates; details: S. pneumoniae (n = 85); for MIC / MIC50 / MIC90: Streptococcus pneumoniae; for MIC: 24 h
Description: as §1, §2, §3, §4, §5

[5] = test system: Anaerobic strains; assay: MIC by agar dilution, maxillary sinus isolates; details: for MIC: 24 h, Anaerobic strains (n = 22): 12 Bacteroides spp., 7 Peptostreptococcus spp., 3 Bacteroides urealyticus
Description: as §1, §2, §3, §4, §5

[6] = test system: Moraxella catarrhalis; assay: MIC by agar dilution, maxillary sinus isolates; details: M. catarrhalis (n = 45); for MIC / MIC50 / MIC90: Moraxella catarrhalis; for MIC: 24 h
Description: as §1, §2, §3, §4, §5

[7] = test system: Haemophilus parainfluenzae; assay: MIC by agar dilution, maxillary sinus isolates; details: H. parainfluenzae (n = 10); for MIC: 24 h
Description: as §1, §2, §3, §4, §5

[8] = test system: Streptococcus spp.; assay: MIC by agar dilution, maxillary sinus isolates; details: Streptococcus spp. (various other strains, 15)
Description: as §1, §2, §3, §4, §5

| Compound | MIC Range [1] | MIC Range [2] | MIC [3] | MIC 90% [4] | MIC [4] | MIC [5] | MIC [6] | MIC [7] | MIC50 [3] | MIC90 [3] | MIC50 [6] | MIC50 ([2]; Staphylococcus aureus) | MIC50 ([5]; Anaerobic strains (n = 22)) | MIC90 [4] | other results |
| --- | --- | --- | --- | --- | --- | --- | --- | --- | --- | --- | --- | --- | --- | --- | --- |
| C[C@H]1COc2c(N3CCN(C)CC3)c(F)cc3c(=O)c(C(=O)O)cn1c23 [Levofloxacin] | 0.03 to 0.25 µg/mL | 0.12 to 0.5 µg/mL | 0.02 to 0.03 µg/mL (≈ 0.0553 to 0.083 µM) | 1 µg/mL (≈ 2.77 µM) | 0.12 to 2 µg/mL (≈ 0.332 to 5.53 µM) | 0.12 to 1 µg/mL (≈ 0.332 to 2.77 µM) | 0.02 to 0.12 µg/mL (≈ 0.0553 to 0.332 µM) | 0.03 to 0.25 µg/mL (≈ 0.083 to 0.692 µM) | – | – | – | – | – | – | MIC50 [8]: 0.12 µg/mL (≈ 0.332 µM) |
| COc1c(N2C[C@@H]3CCCN[C@@H]3C2)c(F)cc2c(=O)c(C(=O)O)cn(C3CC3)c12 [Moxifloxacin] | ≦0.02-0.5 mg/L | 0.03 to 0.12 µg/mL | 0.02 to 0.12 µg/mL (≈ 0.0498 to 0.299 µM) | – | – | – | – | – | 0.13 µg/mL (≈ 0.324 µM) | – | – | – | – | – | – |
| CO/N=C1\CN(c2nc3c(cc2F)c(=O)c(C(=O)O)cn3C2CC2)CC1CN (racemic) [Gemifloxacin, (R,S)-7-(3-aminomethyl-4-methoxyiminopyrrolidin-1-yl)-1-cyclopropyl-6-fluoro-4-oxo-1,4-dihydro-1,8-naphthyridine-3-carboxylic acid] | ≦0.02-0.5 mg/L | 0.03 to 1 µg/mL | 0.02 to 0.03 µg/mL (≈ 0.0514 to 0.077 µM) | – | 0.02 to 0.06 µg/mL (≈ 0.0514 to 0.154 µM) | 0.03 to 0.25 µg/mL (≈ 0.077 to 0.642 µM) | 0.02 to 0.03 µg/mL (≈ 0.0514 to 0.077 µM) | 0.02 to 0.12 µg/mL (≈ 0.0514 to 0.308 µM) | ≤ 0.02 µg/mL | ≤ 0.02 µg/mL | ≤ 0.02 µg/mL | – | – | – | MIC 90% [3]: ≦0.02 mg/L; MIC 90% [6]: ≦0.02 mg/L; MIC90 [6]: ≤ 0.02 µg/mL |
| CC1COc2c(N3CCN(C)CC3)c(F)cc3c(=O)c(C(=O)O)cn1c23 (centres unmarked) [Ofloxacin] | 0.06 to 0.5 µg/mL | 0.25 to 1 µg/mL | 0.02 to 0.06 µg/mL (≈ 0.0553 to 0.166 µM) | 2 µg/mL (≈ 5.53 µM) | 0.25 to 4 µg/mL (≈ 0.692 to 11.1 µM) | 0.25 to 2 µg/mL (≈ 0.692 to 5.53 µM) | 0.02 to 0.25 µg/mL (≈ 0.0553 to 0.692 µM) | – | – | – | – | 0.5 µg/mL (≈ 1.38 µM) | 0.5 µg/mL (≈ 1.38 µM) | – | – |
| Cc1c(F)c(N2CCNC(C)C2)cc2c1c(=O)c(C(=O)O)cn2C1CC1 (centres unmarked) [Grepafloxacin] | ≦0.02-1 mg/L | 0.06 to 0.25 µg/mL | 0.02 to 0.03 µg/mL (≈ 0.0556 to 0.0835 µM) | 0.25 µg/mL (≈ 0.696 µM) | 0.03 to 0.5 µg/mL (≈ 0.0835 to 1.39 µM) | 0.25 to 8 µg/mL (≈ 0.696 to 22.3 µM) | 0.02 to 0.25 µg/mL (≈ 0.0556 to 0.696 µM) | 0.02 to 0.12 µg/mL (≈ 0.0556 to 0.334 µM) | ≤ 0.02 µg/mL | ≤ 0.02 µg/mL | ≤ 0.02 µg/mL | 0.12 µg/mL (≈ 0.334 µM) | 0.25 µg/mL (≈ 0.696 µM) | ≥ 0.25 µg/mL | MIC 90% [3]: ≦0.02 mg/L; MIC50 [4]: 0.25 µg/mL (≈ 0.696 µM); MIC90 ([5]; Anaerobic strains (n = 22)): 8 µg/mL (≈ 22.3 µM); MIC 90% [6]: ≦0.02 mg/L; MIC90 [6]: ≤ 0.02 µg/mL; MIC90 [7]: 0.1 µg/mL (≈ 0.278 µM) |
| CC1(C)S[C@@H]2[C@H](NC(=O)[C@H](N)c3ccc(O)cc3)C(=O)N2[C@H]1C(=O)O [Amoxycillin] | – | 0.06 to 2 µg/mL | – | – | 0.02 to 1 µg/mL (≈ 0.0547 to 2.74 µM) | – | 0.02 to 16 µg/mL (≈ 0.0547 to 43.8 µM) | 0.03 to 1 µg/mL (≈ 0.0821 to 2.74 µM) | 0.25 µg/mL (≈ 0.684 µM) | 2 µg/mL (≈ 5.47 µM) | – | – | 0.25 µg/mL (≈ 0.684 µM) | 0.03 µg/mL (≈ 0.0821 µM) | MIC 90% [2]: 1 µg/mL (≈ 2.74 µM); MIC90 ([2]; Staphylococcus aureus): ≥ 1 µg/mL; MIC50 [4]: 0.03 µg/mL (≈ 0.0821 µM); MIC50 [7]: 0.06 µg/mL (≈ 0.164 µM); MIC90 [7]: 1 µg/mL (≈ 2.74 µM); MIC50 [8]: 2 µg/mL (≈ 5.47 µM); MIC90 [8]: 4 µg/mL (≈ 10.9 µM) |
| N[C@@H]1[C@H]2CN(c3nc4c(cc3F)c(=O)c(C(=O)O)cn4-c3ccc(F)cc3F)C[C@@H]12 [Trovafloxacin] | ≦0.02-0.5 mg/L | – | 0.02 to 0.06 µg/mL (≈ 0.048 to 0.144 µM) | – | 0.02 to 0.12 µg/mL (≈ 0.048 to 0.288 µM) | 0.06 to 4 µg/mL (≈ 0.144 to 9.61 µM) | 0.02 to 0.06 µg/mL (≈ 0.048 to 0.144 µM) | 0.02 to 0.12 µg/mL (≈ 0.048 to 0.288 µM) | ≤ 0.02 µg/mL | – | ≤ 0.02 µg/mL | 0.03 µg/mL (≈ 0.0721 µM) | – | – | MIC 90% [2]: 0.03 µg/mL (≈ 0.0721 µM); MIC50 [7]: 0.03 µg/mL (≈ 0.0721 µM) |
| C[C@@H]1CN(c2c(F)c(N)c3c(=O)c(C(=O)O)cn(C4CC4)c3c2F)C[C@H](C)N1 [Sparfloxacin] | ≦0.02-0.5 mg/L | – | 0.03 to 1 µg/mL (≈ 0.0765 to 2.55 µM) | 0.5 µg/mL (≈ 1.27 µM) | 0.03 to 0.5 µg/mL (≈ 0.0765 to 1.27 µM) | 0.25 to 16 µg/mL (≈ 0.637 to 40.8 µM) | 0.02 to 1 µg/mL (≈ 0.051 to 2.55 µM) | – | – | – | ≤ 0.02 µg/mL | – | – | ≥ 0.25 µg/mL | – |
